Where “and” joins values, the source holds several entries; their conditions need not be identical. Equal values may be shown once. Entries after “also recorded” stand apart in the source; their conditions may differ.
Key:
male Yorkshire pigs = assay: Hemodynamic changes in pigs: sinus rate, mean arterial pressure, left ventricular dP/dt; format: in vivo; conditions: for sinus rate after drug: at the time of electrical testing, ivabradine 0.25 mg/kg, before drug 111±4.0 (ivabradine) and 105±5.7 (ranolazine, combination)
Description: (§1) Data were gathered from male Yorkshire pigs (n=16) weighing 35±2 kg (mean±SEM). The animals were preanesthetized with telazol (4.7 mg/kg, intramuscularly) and then anesthetized with alpha-chloralose (100 mg/kg, i.v., bolus followed by 40 mg/kg/h, i.v., continuous infusion). The animals were intubated and ventilation was maintained between 10-16 breaths/min with volumes between 400-500 mL. Vital signs including core body temperature, heart rate, and oxygen saturation were continuously monitored.
(§2) The right and left femoral veins were cannulated with 7Fr introducer sheaths using the Seldinger technique to insert catheters in the right atrial (RA) appendage for pacing and for positioning the intrapericardial catheter. Arterial blood pressure was continuously monitored from a femoral arterial sheath, and intravenous fluids were administered through the ear vein. The electrocardiogram (ECG) was recorded with a Prucka Cardiolab workstation (GE Medical Systems, Milwaukee, Wis.) from atrial and ventricular sites.
(§3) Ranolazine was given as a 2.4 mg/kg, i.v., bolus followed by continuous infusion of 0.135 mg/kg/min, i.v.
(§4) A nonsteerable, quadripolar electrode catheter (Bard Electrophysiology, Lowell Mass.) was placed in the right atrium (RA) via the femoral vein and a second quadripolar electrode catheter in the right ventricle via the jugular vein. A bipolar electrode was placed in the non-coronary cusp of the aorta through the left carotid artery to record the His bundle electrogram. A pigtail catheter was inserted in the left ventricle via the left femoral artery to record and calculate contractility [left ventricular dP/dt]. Transatrial access was employed to deliver acetylcholine (ACh) into the pericardial space. Specifically, a small puncture was made in the RA appendage with the stiff end of a coronary angioplasty guidewire (0.014-inch Wizdom guidewire, Cordis, Miami, Fla., USA) placed within the lumen of a soft infusion catheter (0.038-inch SOS straight-tip, open-ended angiographic guidewire, Bard Electrophysiology). This wire-within-wire system was advanced as a unit into an 8Fr multipurpose guide catheter (MP2, Boston Scientific, Boston Mass.) previously positioned in the RA appendage via a femoral vein under fluoroscopic guidance and into the pericardial space. The infusion catheter was left in the pericardial space for delivery of ACh and the inner guidewire was removed. Conformation of the infusion catheter on fluoroscopy to the curvature of the heart verified its location within the pericardial space. All of the pericardial fluid was then aspirated with the infusion catheter. Intrapericardial access is associated with a hematocrit <2%, indicating minimum trauma from the atrial puncture (Kumar et al., J Cardiovasc Electrophysiol 2009; 20:796-802). The presence of acetylcholinesterase can rapidly degrade ACh and prevent a sustained response to this neurotransmitter.
The statistical tests were carried out with a SAS statistical package (SAS Institute, Cary, N.C.). Effects on electrophysiologic properties were determined by repeated measures analysis of variance (ANOVA) followed by post-hoc t-tests with Bonferroni correction for multiple comparisons. For mean arterial pressure, heart rate, and dominant frequency during atrial fibrillation, we used paired t-tests to compare effects of agents to baseline. All data are reported as mean±SEM, with P<0.05 considered significant.

[1] = Reffelmann and Kloner 2010; Verrier et al 2013; cited from earlier work
[2] = tested on: Acetylcholine Mediated AF Model in Pigs; assay: Acetylcholine mediated AF model in pigs: dominant frequency, ventricular rate, arterial blood pressure during AF; format: in vivo, pig; conditions: for effect on arterial blood pressure during AF: FIG. 3 and FIG. 4; for effect on dominant frequency of atrial fibrillation / effect on ventricular rate during atrial fibrillation: ivabradine 0.25 mg/kg i.v. bolus; for effect on dominant frequency of atrial fibrillation: ranolazine 2.4 mg/kg bolus + 0.135 mg/kg/min; for effect on dominant frequency of atrial fibrillation / dominant frequency of AF after drug: FIG. 8; for effect on ventricular rate during atrial fibrillation: FIG. 9; for ventricular rate during AF after drug / reduction of ventricular rate during AF: ivabradine 0.25 mg/kg; for ventricular rate during AF after drug: before drug 269.7±6.2 (ivabradine) and 227.3±14.7 (ranolazine, combination); for dominant frequency of AF after drug: series with ivabradine 0.25 mg/kg, baseline 10.3±1.4 (ivabradine) and 9.0±0.8 (ranolazine, combination); for reduction of ventricular rate during AF: alone or shortly after ranolazine
Description: as §1, §2, §3, §4
Atrial fibrillation (AF) was defined as an irregular atrial rhythm with an average cycle length <150 msec at all atrial sites, whereas atrial flutter was defined as a regular atrial rhythm with fixed cycle length >150 msec at all atrial sites. After baseline electrical testing was performed, AF initiation was attempted by decremental burst pacing at each atrial site down to loss of 1:1 capture. ACh (1 mL of 100 mM solution) along with a 1-mL saline flush was injected into the pericardial space via the transatrial infusion catheter. […] After 5 minutes of AF, the pericardial space was lavaged with saline (20 mL) via the transatrial pericardial catheter. At the end of lavage, no further pericardial fluid could be removed. Lavage was performed after 5 minutes of AF in order to minimize the mild systemic hypotension that was occasionally associated with ACh administration. The time to spontaneous termination of AF was recorded.
Dominant frequency of AF was analyzed during the 6th minute after AF initiation using the intracardiac electrograms from the right atrial appendage. […]

[3] = tested on: atrial and ventricular myocardium; conditions: cited from earlier work
[4] = Plasma level determination by LC/MS/MS in pigs; format: in vivo; conditions: pig; at the time of testing combined administration with ivabradine
Description: Blood samples were collected in sodium heparin tubes at 0 and 30 minutes following ranolazine bolus administration and at 0, 15, and 30 minutes after ivabradine bolus administration. The samples were centrifuged and frozen at −80° C. until drug level determination was performed. Concentrations of ivabradine and ranolazine in plasma were determined at Gilead Sciences, Inc. (Foster City Calif.). Plasma was analyzed using a high-performance liquid chromatography-tandem mass spectrometric assay (LC/MS/MS). The quantification limit of ivabradine was 4 nM (1.87 ng/mL). The dynamic range of quantification was 4-10 000 nM (1.87-4686 ng/mL). Ranolazine and an internal standard were extracted with the protein precipitation extraction method. The dynamic range of quantification for ranolazine was 45.8-23,400.

[5] = tested on: AV node and ventricular Purkinje system; conditions: ivabradine 0.2 mg/kg, i.v., cited from earlier work

COc1ccccc1OCC(O)CN1CCN(CC(=O)Nc2c(C)cccc2C)CC1 (racemic) [ranolazine, (±)-N-(2,6-dimethylphenyl)-4-[2-hydroxy-3-(2-methoxyphenoxy)-propyl]-1-piperazineacetamide]
sinus rate after drug (male Yorkshire pigs): 96±3.9 beats/min
effect on left ventricular (LV) dP/dt (contractility) (male Yorkshire pigs; pig, in vivo): not altered
effect on mean arterial pressure during sinus rhythm (male Yorkshire pigs; pig, in vivo): Neither ivabradine nor ranolazine given separately altered
steady-state plasma therapeutic concentration [1]: 2 to 8 µM
change in arterial blood pressure during AF versus control (Δ Control/drug) ([2]; FIG. 3): 3.36 mmHg
effect on arterial blood pressure during AF [2]: Neither ivabradine (FIG. 4) nor ranolazine (FIG. 3) given alone improves; also recorded: no significant improvement
effect on dominant frequency of atrial fibrillation [2]: neither drug alone was effective
effect on ventricular rate during atrial fibrillation [2]: not reduced; also recorded: did not
ventricular rate during AF after drug [2]: 197.1±17.4 beats/min
dominant frequency of AF after drug [2]: 7.8±0.9 Hz
dominant frequency of AF ([3]; Kumar et al. 2009): capable of reducing
APD in ventricular myocardium ([3]; clinically relevant concentrations (5 and 10 μM)): minimal or no effect
duration of the action potential (APD90) in atria ([3]; published studies): prolongs
plasma level of ranolazine [4]: 9.8 ± 1.5 µM

COc1cc2c(cc1OC)CC(=O)N(CCCN(C)C[C@H]1Cc3cc(OC)c(OC)cc31)CC2 [ivabradine, 3-{3-[{[(7S)-3,4-dimethoxybicyclo[4.2.0]octa-1,3,5-trien-7-yl]methyll}-(methyl)amino]propyl}-7,8-dimethoxy-1,3,4,5-tetrahydro-2H-3-benzapenin-2-one]
left ventricular (LV) dP/dt after drug (male Yorkshire pigs; at 30 min after drug, pacing at 180 beats/min, baseline 2156±647.4 (ivabradine) and 1864±109.1 (ranolazine, combination)): 2342±486.5 mmHg/sec
sinus rate after drug (male Yorkshire pigs): 90±3.3 beats/min
effect on mean arterial pressure during sinus rhythm (male Yorkshire pigs; drugs given separately): Neither ivabradine nor ranolazine given separately altered
effect on left ventricular (LV) dP/dt (contractility) (male Yorkshire pigs; pacing at 180 beats/min): not altered
effect on arterial blood pressure during AF [2]: Neither ivabradine (FIG. 4) nor ranolazine (FIG. 3) given alone improves; also recorded: small, not significant decrease
effect on dominant frequency of atrial fibrillation [2]: neither drug alone was effective
effect on ventricular rate during atrial fibrillation [2]: lowered ventricular rate
reduction of ventricular rate during AF [2]: 9%
reduction of ventricular rate during AF ([2]; 30 min after drug infusion): 22.5±6.0 beats/min and 22.53±6.0 beats/min
ventricular rate during AF after drug [2]: 247.2±9.5 beats/min
dominant frequency of AF after drug [2]: 9±0.7 Hz
heart rate ([5]; Thollon 1997, Camm and Lau 2003): lowers heart rate
conductivity, refractoriness or repolarization duration of AV node and ventricular Purkinje system [5]: without causing changes

Reference: US20140364417A1, “METHOD OF TREATING ATRIAL FIBRILLATION” (Gilead Sciences, Inc., priority 2013, published 2014)
